Values quoted from earlier work as cited in US20060141030A1, “Method and composition for stable and controlled delivery of (-)-hydroxycitric acid” (priority 2003, published 2006).

Assays:
experimental animals = settings: single large oral dose or two divided oral doses totaling one fourth of it; high-sugar diet
test subjects = settings: chronic administration; resting and exercising conditions
[1] = tested on: human hepatoma cell line Hep G2
middle-aged rats = settings: 30% fat diet

SMILES | reduction in food consumption (experimental animals) [%] | respiratory exchange ratio (test subjects) | incorporation of [1,5-14C]citrate into fatty acids and cholesterol ([1]; Hep G2, HCA 0.5 mM or higher, 2.5 h and 18 h incubations) | cholesterol biosynthesis, of the control value ([1]; Hep G2, incorporation from 3H2O) [%] | protein and fat as percentage of body weight (middle-aged rats)
O=C(O)CC(O)(C(=O)O)C(O)C(=O)O (single isomer, unassigned; (-)) [HCA, (−)-Hydroxycitric acid] | ≥ 10 | significantly lower | strongly inhibited | 27 | 
O=C([O-])CC(O)(C(=O)[O-])C(O)C(=O)[O-].[K+].[K+].[K+] (centres unmarked) [potassium HCA] |  |  |  |  | increased protein as a percentage of body weight while reducing fat as a percentage of body weight
